{
  "source": "patent JPH0240324A",
  "about": "“キサントシリンxモノメチルエーテルを含有する駆虫剤” (Meiji Seika Kaisha Ltd, priority 1988, dated 1990)",
  "test_system": "chicken roundworm [鶏回虫(^5earidia galli)]",
  "experiment": "Anthelmintic test: single oral dose to chickens infected with chicken roundworm; worm expulsion rate over 7 days",
  "assay_type": "in vivo, chicken roundworm (^5earidia galli)",
  "details": "for worm expulsion rate (mean): single oral dose (gelatin capsule), n = 3, 7 days, untreated control 0%",
  "data": [
    {"molecule": "[C-]#[N+]C(=Cc1ccc(O)cc1)C(=Cc1ccc(OC)cc1)[N+]#[C-]", "note": "[キサントシリンXモノメチルエーテル, 1(p−ヒドロキシフェニル)−2、3−ジイソシフノー4−(p−メトキシフェニル)−ブタ−1,3−ツエン]", "values": [
      {"measurement": "worm expulsion rate (mean)", "setting": "5 mg/kg", "value": 8, "unit": "%"},
      {"measurement": "worm expulsion rate (mean)", "setting": "10 mg/kg", "value": 69.7, "unit": "%"},
      {"measurement": "worm expulsion rate (mean)", "setting": "20 mg/kg, completely expelled", "value": 100, "unit": "%"},
      {"measurement": "anthelmintic effect", "setting": "doses of 10 mg/kg to 20 mg/kg, single oral dose", "value": "確実な駆虫効果が確認された"},
      {"measurement": "time after dosing within which most worms were expelled", "setting": "most of the medicated groups, single oral dose 5-20 mg/kg", "value": "≤ 2", "unit": "days"}
    ]}
  ]
}
